The source made the active and inactive calls. No cut-off for these calls is given here.
Experiments:
[1] = test system: MDA-MB-231; assay: Induction of apoptosis in human MDA-MB-231 cells assessed as downregulation of MCL-1 protein expression incubated for 48 hrs by Western blotting analysis; format: functional, cell-based
[2] = test system: MDA-MB-468; assay: Induction of apoptosis in human MDA-MB-468 cells at 5 uM incubated for 48 hrs by annexin-V-APC/PI staining based flow cytometric analysis (reference value: 5.38 +/- 1.63 %); format: functional
[3] = test system: MDA-MB-231; assay: Induction of apoptosis in human MDA-MB-231 cells at 0.2 uM incubated for 48 hrs by annexin-V-APC/PI staining based flow cytometric analysis (reference value: 1.81 +/- 0.47 %); format: functional
[4] = test system: MDA-MB-468; assay: Induction of apoptosis in human MDA-MB-468 cells at 2 uM incubated for 48 hrs by annexin-V-APC/PI staining based flow cytometric analysis (reference value: 5.38 +/- 1.63 %); format: functional
[5] = test system: MDA-MB-468; assay: Antimigratory activity in human MDA-MB-468 cells assessed as downregulation of Vimentin protein expression incubated for 48 hrs by Western blotting analysis; format: functional, cell-based
[6] = test system: MDA-MB-231; assay: Inhibition of NF-kappaB signalling pathway in human MDA-MB-231 cells assessed as downregulation of p65 phosphorylation at 0.5 to 2 uM incubated for 48 hrs by Western blotting analysis; format: cell-based; conditions: dose 0.5-2 µM
[7] = test system: MDA-MB-231; assay: Induction of cell cycle arrest in human MDA-MB-231 cells assessed as increase in accumulation of cells at S phase at 0.2 to 2 uM incubated for 48 hrs by RNase/PI staining based flow cytometric analysis; format: functional; conditions: dose 0.2-2 µM
[8] = test system: SUM-159-PT; assay: Antiproliferative activity against human SUM159 cells assessed as inhibition of cell growth incubated for 72 hrs by MTT assay; format: functional, cell-based
[9] = Toxicity in Balb/c mouse implanted with mouse 4T1 cells assessed as decrease in body weight at 10 mg/kg,ip administrated every two days for 20 days; format: organism-based; conditions: in vivo, 480 h, time 20 day
[10] = test system: MDA-MB-231; assay: Inhibition of NF-kappaB signalling pathway in human MDA-MB-231 cells assessed as upregulation of cytoplasmic p65 expression at 0.2 to 2 uM incubated for 48 hrs by Western blotting analysis; format: cell-based; conditions: dose 0.2-2 µM
[11] = test system: MDA-MB-231; assay: Induction of cell cycle arrest in human MDA-MB-231 cells assessed as downregulation of Cyclin E1 protein expression incubated for 48 hrs by Western blotting analysis; format: functional, cell-based
[12] = test system: NIH3T3; assay: Cytotoxicity against mouse 3T3 cells at 1 uM incubated for 72 hrs by MTT assay; format: toxicity, cell-based; conditions: nih3t3, 72 h
[13] = test system: MDA-MB-231; assay: Antimigratory activity in human MDA-MB-231 cells assessed as reduction in number of migrated cells incubated for 48 hrs by crystal violet staining based transwell assay; format: functional, cell-based
[14] = test system: 4T1; assay: Antitumor activity against mouse 4T1 cells implanted in Balb/c mouse assessed as decrease in liver weight at 10 mg/kg,ip administrated every two days for 20 days; format: functional, organism-based; conditions: time 20.0 day
[15] = test system: MDA-MB-468; assay: Induction of apoptosis in human MDA-MB-468 cells at 1 uM incubated for 48 hrs by annexin-V-APC/PI staining based flow cytometric analysis (reference value: 5.38 +/- 1.63 %); format: functional
[16] = test system: 4T1; assay: Antitumor activity against mouse 4T1 cells implanted in Balb/c mouse assessed as inhibition of tumor volume at 10 mg/kg,ip administrated every two days for 20 days; format: functional, organism-based; conditions: time 20.0 day

C=C1C(=O)O[C@H]2[C@H]1CC/C(COc1ccc(-c3cc(=S)ss3)cc1)=C\CC[C@@]1(C)O[C@@H]21
Activity [1]: Dose-Dependent Effect
Activity [2]: 43.96%
Activity [3]: 2.01%
Activity [4]: 8.64%
Activity [5]: Dose-Dependent Effect
inhibition [6]: Active
Activity [7]: Active
IC50 [8]: 1.51 µM
Activity [9]: Toxic
inhibition [10]: Active
Activity [11]: Dose-Dependent Effect
Activity [12]: Toxic
Activity [13]: Dose-Dependent Effect
Activity [14]: Active
Activity [15]: 6.4%
Activity [16]: Active

From ChEMBL document CHEMBL5537150, “Synthesis of melampomagnolide B derivatives as potential anti-Triple Negative Breast Cancer agents” (Eur J Med Chem, 2024)
